Assay results taken from US8039458B2, “HIV integrase inhibitors” (priority 2005, dated 2011).

Columns and labels:
HIV-Integrase = molecular target: T1, HIV-Integrase (Human immunodeficiency virus type 1 group M subtype B, UniProt P12497); experiment: HIV-Integrase binding assay (competition with [3H]-compound I, SPA); conditions: competitive binding vs [3H]-compound I to purified integrase; Ki by Cheng and Prusoff; read-out: in vitro binding
T1 construct: Recombinant integrase (0.26 ng) was incubated with the beads
Experimental: HIV-Integrase Inhibition Activity. To evaluate in-vitro activity against HIV-integrase, 5 pmole of biotin labeled substrate DNA was bound to 100 μg of Streptavidin coated PVT SPA beads (Amersham Pharmacia Biotech). Recombinant integrase (0.26 ng) was incubated with the beads for 90 min at 37° C. Unbound enzyme was removed by washing the complex followed by addition of inhibitors and 0.1 fmol of P33 labeled target DNA. The reaction was stopped by adding EDTA to a final concentration of 10 mM. Samples were counted in TopCountNXT (Packard) and the CPM was used as a measure of integration. The reaction condition was as described in A. Engelman and R. Craigie, J. Virol. 69, 5908-5911 (1995). The sequences of substrate and target DNA were described in Nucleic Acid Research 22,1121-1122 (1994).
HIV-Integrase binding assay. In this assay competitive binding experiments with test compounds and a radiolabeled integrase inhibitor (compound I) are performed against purified integrase. SPA bead/DNA/enzyme complexes were prepared as for the integrase inhibition assay except, to each well, 0.69 μl of integrase enzyme ([…]) was used per 2 μl of LTR DNA-attached scintillation proximity beads (stock 50 mg/ml). Binding reactions were carried out in 96-well white polystyrene assay plates (Corning, #3600). The following was added sequentially to each well: 20 μl of water or 20 μl of human serum (Cellgro Cat# 35-060-CL), 5 μl of serially diluted compound (in 50% DMSO/50% integrase SPA buffer), 5 μl of [^3H]-compound I (6,000 cpm/μl in SPA buffer) and 20 μl of bead/DNA/enzyme complex. The plates were shaken for 2 hours and then allowed to sit at room temperature without shaking overnight. The [^3H]-compound I binding was measured using a Topcount scintillation counter. Cheng and Prusoff equations were used to convert the inhibition of compound 1 binding into the corresponding Ki value. Activity equal to A refers to a compound having Ki=0.001 to 0.003 μM while B and C denote compounds having Ki=0.003 to 0.05 μM and Ki≧0.050 μM respectively.

[1] = tested on: recombinant NL-Rluc virus; experiment: Inhibition of HIV replication (NL-RLuc virus, Renilla luciferase); format: cell-based; conditions: Human immunodeficiency virus 1, read-out: antiviral actitively

| Compound | Ki (HIV-Integrase) | EC50 [1] |
| --- | --- | --- |
| Cc1nc(C)n(-c2cc(F)ccc2CNC(=O)c2nc3n(c(=O)c2O)CCOCC32CCC2)n1 [Example 11, N-((2-(3,5-dimethyl-1H-1,2,4-triazol-1-yl)-4-fluorophenyl)methyl)-3′-hydroxy-4′-oxo-6′,7′-dihydro-4′H-spiro[cyclobutane-1,10′-pyrimido[1,2-d][1,4]oxazepine]-2′-carboxamide] | 3 to 50 nM | 1 to 10 nM |
| O=C(NCc1ccc(F)cc1)c1nc2n(c(=O)c1O)CCOCC21CCCC1 [Example 12, N-((4-fluorophenyl)methyl)-3′-hydroxy-4′-oxo-6′,7′-dihydro-4′H-spiro[cyclopentane-1,10′-pyrimido[1,2-d][1,4]oxazepine]-2′-carboxamide] | 1 to 3 nM | 1 to 10 nM |
| CS(=O)(=O)c1cc(F)ccc1CNC(=O)c1nc2n(c(=O)c1O)CCOCC21CCCC1 [Example 13, N-((4-fluoro-2-(methylsulfonyl)phenyl)methyl)-3′-hydroxy-4′-oxo-6′,7′-dihydro-4′H-spiro[cyclopentane-1,10′-pyrimido[1,2-d][1,4]oxazepine]-2′-carboxamide] | 1 to 3 nM | 1 to 10 nM |
| O=C(NCc1ccc(F)cc1-n1cncn1)c1nc2n(c(=O)c1O)CCOCC21CCCC1 [Example 14, N-((4-fluoro-2-(1H-1,2,4-triazol-1-yl)phenyl)methyl)-3′-hydroxy-4′-oxo-6′,7′-dihydro-4′H-spiro[cyclopentane-1,10′-pyrimido[1,2-d][1,4]oxazepine]-2′-carboxamide] | 1 to 3 nM | 1 to 10 nM |
| Cn1nnc(-c2cc(F)ccc2CNC(=O)c2nc3n(c(=O)c2O)CCOCC32CCCC2)n1 [Example 15, N-((4-fluoro-2-(2-methyl-2H-tetrazol-5-yl)phenyl)methyl)-3′-hydroxy-4′-oxo-6′,7′-dihydro-4′H-spiro[cyclopentane-1,10′-pyrimido[1,2-d][1,4]oxazepine]-2′-carboxamide] | 1 to 3 nM | 1 to 10 nM |
| CC1(C)COCCn2c1nc(C(=O)NCc1ccc(F)cc1N1CCCC1=O)c(O)c2=O [Example 16, N-((4-fluoro-2-(2-oxo-1-pyrrolidinyl)phenyl)methyl)-3-hydroxy-10,10-dimethyl-4-oxo-6,7,9,10-tetrahydro-4H-pyrimido[1,2-d][1,4]oxazepine-2-carboxamide] | 1 to 3 nM | 1 to 10 nM |
| COP(=O)(OC)c1cc(F)ccc1CNC(=O)c1nc2n(c(=O)c1O)CCOCC2(C)C [Example 17, Dimethyl (5-fluoro-2-((((3-hydroxy-10,10-dimethyl-4-oxo-6,7,9,10-tetrahydro-4H-pyrimido[1,2-d][1,4]oxazepin-2-yl)carbonyl)amino)methyl)phenyl)-phosphonate] | 3 to 50 nM | 1 to 10 nM |
| Cc1nnn(-c2cc(F)ccc2CNC(=O)c2nc3n(c(=O)c2O)CCOCC3(C)C)c1C [Example 18, N-(2-(4,5-Dimethyl-1H-1,2,3-triazol-1-yl)-4-fluorobenzyl)-3-hydroxy-10,10-dimethyl-4-oxo-6,7,9,10-tetrahydro-4H-pyrimido[1,2-d][1,4]oxazepine-2-carboxamide] | 3 to 50 nM | 1 to 10 nM |
| Cc1cnnn1-c1cc(F)ccc1CNC(=O)c1nc2n(c(=O)c1O)CCOCC2(C)C [Example 19, N-(4-fluoro-2-(5-methyl-1H-1,2,3-triazol-1-yl)benzyl)-3-hydroxy-10,10-dimethyl-4-oxo-6,7,9,10-tetrahydro-4H-pyrimido[1,2-d][1,4]oxazepine-2-carboxamide] | 3 to 50 nM | 1 to 10 nM |
| CC1(C)COCCn2c1nc(C(=O)NCc1ccc(F)cc1-n1ncnc1-c1ccccc1)c(O)c2=O [Example 20, N-((4-fluoro-2-(5-phenyl-1H-1,2,4-triazol-1-yl)phenyl)methyl)-3-hydroxy-10,10-dimethyl-4-oxo-6,7,9,10-tetrahydro-4H-pyrimido[1,2-d][1,4]oxazepine-2-carboxamide] | ≥ 50 nM | > 50 nM |
| Cc1ncn(-c2cc(F)ccc2CNC(=O)c2nc3n(c(=O)c2O)CCOCC32CCCC2)n1 [Example 21, N-((4-fluoro-2-(3-methyl-1H-1,2,4-triazol-1-yl)phenyl)methyl)-3′-hydroxy-4′-oxo-6′,7′-dihydro-4′H-spiro[cyclopentane-1,10′-pyrimido[1,2-d][1,4]oxazepine]-2′-carboxamide] | 1 to 3 nM | 1 to 10 nM |
| CCc1ncnn1-c1cc(F)ccc1CNC(=O)c1nc2n(c(=O)c1O)CCOCC21CCCC1 [Example 22, N-((2-(5-ethyl-1H-1,2,4-triazol-1-yl)-4-fluorophenyl)methyl)-3′-hydroxy-4′-oxo-6′,7′-dihydro-4′H-spiro[cyclopentane-1,10′-pyrimido[1,2-d][1,4]oxazepine]-2′-carboxamide] | 3 to 50 nM | 1 to 10 nM |
| Cc1ncnn1-c1cc(F)ccc1CNC(=O)c1nc2n(c(=O)c1O)CCOCC21CCCC1 [Example 23, N-((4-fluoro-2-(5-methyl-1H-1,2,4-triazol-1-yl)phenyl)methyl)-3′-hydroxy-4′-oxo-6′,7′-dihydro-4′H-spiro[cyclopentane-1,10′-pyrimido[1,2-d][1,4]oxazepine]-2′-carboxamide] | 1 to 3 nM | 1 to 10 nM |
| Cc1nc(C)n(-c2cc(F)ccc2CNC(=O)c2nc3n(c(=O)c2O)CCOCC32CCCC2)n1 [Example 24, N-((2-(3,5-dimethyl-1H-1,2,4-triazol-1-yl)-4-fluorophenyl)methyl)-3′-hydroxy-4′-oxo-6′,7′-dihydro-4′H-spiro[cyclopentane-1,10′-pyrimido[1,2-d][1,4]oxazepine]-2′-carboxamide] | 3 to 50 nM | 1 to 10 nM |
| O=C(NCc1ccc(F)cc1-n1cnc(CO)n1)c1nc2n(c(=O)c1O)CCOCC21CCOCC1 [Example 25, N-((4-fluoro-2-(3-(hydroxymethyl)-1H-1,2,4-triazol-1-yl)phenyl)methyl)-3′-hydroxy-4′-oxo-2,3,5,6,6′,7′-hexahydro-4′H-spiro[pyran-4,10′-pyrimido[1,2-d][1,4]oxazepine]-2′-carboxamide] | 3 to 50 nM | > 50 nM |
| COCc1ncn(-c2cc(F)ccc2CNC(=O)c2nc3n(c(=O)c2O)CCOCC32CCOCC2)n1 [Example 26, N-((4-fluoro-2-(3-((methyloxy)methyl)-1H-1,2,4-triazol-1-yl)phenyl)methyl)-3′-hydroxy-4′-oxo-2,3,5,6,6′,7′-hexahydro-4′H-spiro[pyran-4,10′-pyrimido[1,2-d][1,4]oxazepine]-2′-carboxamide] | 3 to 50 nM | 10 to 50 nM |
| Cn1cnn(-c2cc(F)ccc2CNC(=O)c2nc3n(c(=O)c2O)CCOCC32CCOCC2)c1=O [Example 27, N-(4-Fluoro-2-(4-methyl-5-oxo-4,5-dihydro-1H-1,2,4-triazol-1-yl)benzyl)-3′-hydroxy-4′-oxo-2,3,4′,5,6,6′,7′,9′-octahydrospiro[pyran-4,10′-pyrimido[1,2-d][1,4]oxazepine]-2′-carboxamide] | 3 to 50 nM | 1 to 10 nM |
| Cc1nn(-c2cc(F)ccc2CNC(=O)c2nc3n(c(=O)c2O)CCOCC32CCOCC2)c(=O)n1C [Example 28, N-(2-(3,4-dimethyl-5-oxo-4,5-dihydro-1H-1,2,4-triazol-1-yl)-4-fluorobenzyl)-3′-hydroxy-4′-oxo-2,3,4′,5,6,6′,7′,9′-octahydrospiro[pyran-4,10′-pyrimido[1,2-d][1,4]oxazepine]-2′-carboxamide] | 3 to 50 nM | 1 to 10 nM |
